The target in one assay is T1, ULK1 (Homo sapiens, UniProt O75385).
T1 construct: to maximize the representation of endogenous proteins; endogenous in cells
Nature of the assay: Kinobeads two-dose competition binding: ULK1. To be noted: read-out: Lestaurtinib Drugmatrix value, Gene Name ULK1; repeated control pulldowns; each column = experiment id and replicate (Lestaurtinib_02339_R1 ... Lestaurtinib_03260_R3).

The target of the next assay is T2, MAPKAPK2 (Homo sapiens, UniProt P49137).
T2 construct: endogenous in cells
T2 sequence (P49137 whole entry): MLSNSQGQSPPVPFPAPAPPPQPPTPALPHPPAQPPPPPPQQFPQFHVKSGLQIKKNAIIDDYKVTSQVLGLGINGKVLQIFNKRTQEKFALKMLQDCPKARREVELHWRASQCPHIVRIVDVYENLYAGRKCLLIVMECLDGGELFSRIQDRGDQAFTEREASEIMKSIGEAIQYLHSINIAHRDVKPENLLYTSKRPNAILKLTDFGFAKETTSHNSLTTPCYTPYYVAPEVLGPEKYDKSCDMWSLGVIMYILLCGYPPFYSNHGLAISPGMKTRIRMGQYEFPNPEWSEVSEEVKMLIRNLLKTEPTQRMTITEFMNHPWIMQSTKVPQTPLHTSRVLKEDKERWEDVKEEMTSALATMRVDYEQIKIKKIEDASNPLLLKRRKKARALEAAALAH
The assay is described as follows: Kinobeads full dose-response competition binding: MAPKAPK2. To be noted: Gene Name MAPKAPK2.

For another assay, the target named is T3, RIPK2 (Homo sapiens, UniProt O43353).
T3 construct: endogenous in cells
T3 sequence (O43353 whole entry): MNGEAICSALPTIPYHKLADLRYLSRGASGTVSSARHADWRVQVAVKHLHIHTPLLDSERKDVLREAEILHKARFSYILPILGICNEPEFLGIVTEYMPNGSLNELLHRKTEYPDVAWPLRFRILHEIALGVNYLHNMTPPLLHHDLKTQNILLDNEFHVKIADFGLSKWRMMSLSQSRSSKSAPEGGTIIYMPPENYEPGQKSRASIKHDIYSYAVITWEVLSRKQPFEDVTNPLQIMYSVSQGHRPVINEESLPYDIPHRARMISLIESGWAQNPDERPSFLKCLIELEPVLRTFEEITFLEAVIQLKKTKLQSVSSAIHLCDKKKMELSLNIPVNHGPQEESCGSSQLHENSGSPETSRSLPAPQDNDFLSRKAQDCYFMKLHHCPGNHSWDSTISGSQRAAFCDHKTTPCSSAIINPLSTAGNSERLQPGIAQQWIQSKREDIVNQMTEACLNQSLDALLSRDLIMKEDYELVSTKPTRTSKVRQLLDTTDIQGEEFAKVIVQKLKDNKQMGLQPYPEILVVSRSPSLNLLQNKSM
The assay is described as follows: Kinobeads full dose-response competition binding: RIPK2. The settings on record: Gene Name RIPK2.

In assay [1] the target is T4, endogenous kinases and other proteins enriched by Kinobeads from mixed cancer cell lysates (Homo sapiens, UniProt O14965).
T4 construct: endogenous in cells
The assay is described as follows: Kinobeads pulldown, full dose-response (eight doses).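 Note: competition with Kinobeads ε after inhibitor preincubation in lysate (5 mg/ml protein) for 45 min at 4 °C, DMSO control, doses 0.3–1,000 nM, label-free LC–MS/MS quantification.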 It is filed as binding. The settings on record: target AURKA.

Assay [2] addresses T5, endogenous kinases and other proteins enriched by Kinobeads from mixed cancer cell lysates (Homo sapiens, UniProt O15530).
T5 construct: endogenous in cells
The assay is described as above. It is filed as binding. To be noted: target PDPK1;PDPK2P.

The target in assay [3] is T6, endogenous kinases and other proteins enriched by Kinobeads from mixed cancer cell lysates (Homo sapiens, UniProt O60285).
T6 construct: endogenous in cells
The description is as above. The assay is classed as binding. To be noted: target NUAK1.

Assay [4] addresses T7, endogenous kinases and other proteins enriched by Kinobeads from mixed cancer cell lysates (Homo sapiens, UniProt O94804).
T7 construct: endogenous in cells
The description is as above. It is filed as binding. The settings on record: target STK10.

In assay [5] the target is T8, endogenous kinases and other proteins enriched by Kinobeads from mixed cancer cell lysates (Homo sapiens, UniProt O94806).
T8 construct: endogenous in cells
Described as above. It is filed as binding. The settings on record: target PRKD3.

Assay [6] addresses T9, endogenous kinases and other proteins enriched by Kinobeads from mixed cancer cell lysates (Homo sapiens, UniProt P11274).
T9 construct: endogenous in cells
The assay is described as above. The settings on record: target BCR. The assay is classed as binding.

The target of assay [7] is T10, endogenous kinases and other proteins enriched by Kinobeads from mixed cancer cell lysates (Homo sapiens, UniProt P27448).
T10 construct: endogenous in cells
Described as above. The assay is classed as binding. The settings on record: target MARK3.

The target in assay [8] is T11, endogenous kinases and other proteins enriched by Kinobeads from mixed cancer cell lysates (Homo sapiens, UniProt P51946).
T11 construct: endogenous in cells
Described as above. The assay is classed as binding. The settings on record: target CCNH.

The target of assay [9] is T12, endogenous kinases and other proteins enriched by Kinobeads from mixed cancer cell lysates (Homo sapiens, UniProt Q12851).
T12 construct: to maximize the representation of endogenous proteins; endogenous in cells
Described as above. It is filed as binding. To be noted: target MAP4K2.

Assay [10] concerns the target T13, endogenous kinases and other proteins enriched by Kinobeads from mixed cancer cell lysates (Homo sapiens, UniProt Q13043).
T13 construct: endogenous in cells
Described as above. It is filed as binding. The settings on record: target STK4.

In assay [11] the target is T14, endogenous kinases and other proteins enriched by Kinobeads from mixed cancer cell lysates (Homo sapiens, UniProt Q13188).
T14 construct: endogenous in cells
T14 sequence (Q13188 whole entry): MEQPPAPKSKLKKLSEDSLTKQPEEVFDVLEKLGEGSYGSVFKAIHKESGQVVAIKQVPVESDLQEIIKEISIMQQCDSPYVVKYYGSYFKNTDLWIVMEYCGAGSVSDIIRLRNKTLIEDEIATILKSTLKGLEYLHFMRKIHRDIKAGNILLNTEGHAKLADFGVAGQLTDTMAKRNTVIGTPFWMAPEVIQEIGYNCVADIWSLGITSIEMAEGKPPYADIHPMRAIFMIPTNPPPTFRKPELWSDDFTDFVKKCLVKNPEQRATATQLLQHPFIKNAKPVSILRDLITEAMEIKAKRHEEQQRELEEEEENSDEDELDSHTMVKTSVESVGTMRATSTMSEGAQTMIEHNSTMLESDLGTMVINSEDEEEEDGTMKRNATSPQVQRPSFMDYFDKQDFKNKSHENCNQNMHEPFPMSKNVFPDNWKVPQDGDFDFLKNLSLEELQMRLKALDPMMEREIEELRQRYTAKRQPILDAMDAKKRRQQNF
The description is as above. The settings on record: target STK3. It is filed as binding.

The target in assay [12] is T15, endogenous kinases and other proteins enriched by Kinobeads from mixed cancer cell lysates (Homo sapiens, UniProt Q13873).
T15 construct: endogenous in cells
The assay is described as above. The assay is classed as binding. The settings on record: target BMPR2.

In assay [13] the target is T16, endogenous kinases and other proteins enriched by Kinobeads from mixed cancer cell lysates (Homo sapiens, UniProt Q15831).
T16 construct: endogenous in cells
The description is as above. The assay is classed as binding. To be noted: target STK11.

For assay [14], the target named is T17, endogenous kinases and other proteins enriched by Kinobeads from mixed cancer cell lysates (Homo sapiens, UniProt Q2M2I8).
T17 construct: to maximize the representation of endogenous proteins; endogenous in cells
The description is as above. It is filed as binding. To be noted: target AAK1.

Assay [15] deals with T18, endogenous kinases and other proteins enriched by Kinobeads from mixed cancer cell lysates (Homo sapiens, UniProt Q6ZSR9).
T18 construct: endogenous in cells
Described as above. The assay is classed as binding. To be noted: target Q6ZSR9.

For assay [16], the target named is T19, endogenous kinases and other proteins enriched by Kinobeads from mixed cancer cell lysates (Homo sapiens, UniProt Q7KZI7).
T19 construct: endogenous in cells
The description is as above. The assay is classed as binding. To be noted: target MARK2.

Assay [17] addresses T20, endogenous kinases and other proteins enriched by Kinobeads from mixed cancer cell lysates (Homo sapiens, UniProt Q96GD4).
T20 construct: endogenous in cells
Described as above. It is filed as binding. To be noted: target AURKB.

Assay [18] deals with T21, endogenous kinases and other proteins enriched by Kinobeads from mixed cancer cell lysates (Homo sapiens, UniProt Q96L34).
T21 construct: endogenous in cells
The assay is described as above. The assay is classed as binding. The settings on record: target MARK4.

For assay [19], the target named is T22, endogenous kinases and other proteins enriched by Kinobeads from mixed cancer cell lysates (Homo sapiens, UniProt Q9BZL6).
T22 construct: endogenous in cells
Described as above. The assay is classed as binding. To be noted: target PRKD2.

The target of assay [20] is T23, endogenous kinases and other proteins enriched by Kinobeads from mixed cancer cell lysates (Homo sapiens, UniProt Q9H2G2).
T23 construct: endogenous in cells
T23 sequence (Q9H2G2 whole entry): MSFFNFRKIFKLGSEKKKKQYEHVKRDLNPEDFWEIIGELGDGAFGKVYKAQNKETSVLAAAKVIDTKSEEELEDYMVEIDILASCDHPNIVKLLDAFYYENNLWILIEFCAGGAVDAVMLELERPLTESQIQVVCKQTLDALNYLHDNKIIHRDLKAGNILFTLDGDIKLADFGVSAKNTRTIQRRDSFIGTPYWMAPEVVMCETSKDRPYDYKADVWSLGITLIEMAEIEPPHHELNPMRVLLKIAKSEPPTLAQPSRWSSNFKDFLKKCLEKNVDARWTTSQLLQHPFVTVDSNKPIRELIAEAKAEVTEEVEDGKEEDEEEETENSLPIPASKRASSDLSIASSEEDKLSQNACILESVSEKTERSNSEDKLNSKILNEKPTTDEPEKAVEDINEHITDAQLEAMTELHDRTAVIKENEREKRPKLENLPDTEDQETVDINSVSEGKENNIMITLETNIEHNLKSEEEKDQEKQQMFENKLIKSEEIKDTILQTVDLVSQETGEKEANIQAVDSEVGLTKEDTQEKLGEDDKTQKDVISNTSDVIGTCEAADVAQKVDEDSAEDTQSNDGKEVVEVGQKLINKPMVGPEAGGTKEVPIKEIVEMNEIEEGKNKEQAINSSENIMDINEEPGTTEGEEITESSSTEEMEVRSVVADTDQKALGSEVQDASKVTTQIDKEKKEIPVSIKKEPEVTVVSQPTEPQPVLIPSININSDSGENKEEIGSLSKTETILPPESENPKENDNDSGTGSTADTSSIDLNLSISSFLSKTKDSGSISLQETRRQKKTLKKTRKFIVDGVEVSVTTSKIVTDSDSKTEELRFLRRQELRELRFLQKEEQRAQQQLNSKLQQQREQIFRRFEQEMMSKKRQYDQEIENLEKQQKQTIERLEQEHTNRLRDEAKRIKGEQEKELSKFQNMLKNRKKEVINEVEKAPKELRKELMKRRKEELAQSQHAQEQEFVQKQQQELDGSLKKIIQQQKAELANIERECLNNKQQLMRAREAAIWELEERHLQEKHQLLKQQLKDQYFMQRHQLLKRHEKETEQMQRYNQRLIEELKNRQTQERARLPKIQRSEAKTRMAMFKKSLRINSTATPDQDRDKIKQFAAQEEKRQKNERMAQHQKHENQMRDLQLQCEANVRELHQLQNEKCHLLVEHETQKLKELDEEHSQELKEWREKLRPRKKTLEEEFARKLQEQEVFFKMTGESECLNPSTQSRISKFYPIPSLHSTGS
Described as above. The assay is classed as binding. To be noted: target SLK.

Assay [21] has as its target T24, endogenous kinases and other proteins enriched by Kinobeads from mixed cancer cell lysates (Homo sapiens, UniProt Q9NSY1).
T24 construct: endogenous in cells
The description is as above. It is filed as binding. The settings on record: target BMP2K.

Assay [22] addresses T25, endogenous kinases and other proteins enriched by Kinobeads from mixed cancer cell lysates (Homo sapiens, UniProt Q9P289).
T25 construct: endogenous in cells
The assay is described as above. To be noted: target STK26. The assay is classed as binding.

[23] abbreviates: EC50 with Correction, doses in nM, read-out: apparent Kd.
Setting [24] is: eight-dose curve fit, doses in nM.

T7 sequence (O94804 whole entry): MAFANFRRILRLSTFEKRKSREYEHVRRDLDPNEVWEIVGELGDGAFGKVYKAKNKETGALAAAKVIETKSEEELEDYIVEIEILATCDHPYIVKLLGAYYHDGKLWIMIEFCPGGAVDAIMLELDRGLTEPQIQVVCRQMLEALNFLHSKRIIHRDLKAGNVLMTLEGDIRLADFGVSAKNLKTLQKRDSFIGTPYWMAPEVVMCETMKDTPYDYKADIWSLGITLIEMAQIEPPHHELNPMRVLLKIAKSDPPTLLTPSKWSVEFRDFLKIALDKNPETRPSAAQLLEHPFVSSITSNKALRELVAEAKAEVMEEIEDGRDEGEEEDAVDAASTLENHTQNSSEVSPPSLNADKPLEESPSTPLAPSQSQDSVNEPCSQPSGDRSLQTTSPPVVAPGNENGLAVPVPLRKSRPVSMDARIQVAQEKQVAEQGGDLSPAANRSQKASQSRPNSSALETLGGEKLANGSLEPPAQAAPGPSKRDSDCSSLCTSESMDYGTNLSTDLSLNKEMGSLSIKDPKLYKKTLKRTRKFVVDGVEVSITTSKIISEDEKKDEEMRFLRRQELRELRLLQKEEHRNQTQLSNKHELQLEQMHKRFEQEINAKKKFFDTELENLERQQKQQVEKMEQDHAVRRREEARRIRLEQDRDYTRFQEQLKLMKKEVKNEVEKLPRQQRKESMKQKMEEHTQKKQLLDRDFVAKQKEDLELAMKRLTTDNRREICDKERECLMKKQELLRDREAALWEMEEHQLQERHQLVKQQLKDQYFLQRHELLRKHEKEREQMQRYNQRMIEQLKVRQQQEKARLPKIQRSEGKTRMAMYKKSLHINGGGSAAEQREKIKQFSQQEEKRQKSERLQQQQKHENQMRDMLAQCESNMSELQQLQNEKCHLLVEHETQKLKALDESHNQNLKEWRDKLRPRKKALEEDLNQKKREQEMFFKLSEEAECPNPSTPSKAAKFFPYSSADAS
T9 sequence (P11274 whole entry): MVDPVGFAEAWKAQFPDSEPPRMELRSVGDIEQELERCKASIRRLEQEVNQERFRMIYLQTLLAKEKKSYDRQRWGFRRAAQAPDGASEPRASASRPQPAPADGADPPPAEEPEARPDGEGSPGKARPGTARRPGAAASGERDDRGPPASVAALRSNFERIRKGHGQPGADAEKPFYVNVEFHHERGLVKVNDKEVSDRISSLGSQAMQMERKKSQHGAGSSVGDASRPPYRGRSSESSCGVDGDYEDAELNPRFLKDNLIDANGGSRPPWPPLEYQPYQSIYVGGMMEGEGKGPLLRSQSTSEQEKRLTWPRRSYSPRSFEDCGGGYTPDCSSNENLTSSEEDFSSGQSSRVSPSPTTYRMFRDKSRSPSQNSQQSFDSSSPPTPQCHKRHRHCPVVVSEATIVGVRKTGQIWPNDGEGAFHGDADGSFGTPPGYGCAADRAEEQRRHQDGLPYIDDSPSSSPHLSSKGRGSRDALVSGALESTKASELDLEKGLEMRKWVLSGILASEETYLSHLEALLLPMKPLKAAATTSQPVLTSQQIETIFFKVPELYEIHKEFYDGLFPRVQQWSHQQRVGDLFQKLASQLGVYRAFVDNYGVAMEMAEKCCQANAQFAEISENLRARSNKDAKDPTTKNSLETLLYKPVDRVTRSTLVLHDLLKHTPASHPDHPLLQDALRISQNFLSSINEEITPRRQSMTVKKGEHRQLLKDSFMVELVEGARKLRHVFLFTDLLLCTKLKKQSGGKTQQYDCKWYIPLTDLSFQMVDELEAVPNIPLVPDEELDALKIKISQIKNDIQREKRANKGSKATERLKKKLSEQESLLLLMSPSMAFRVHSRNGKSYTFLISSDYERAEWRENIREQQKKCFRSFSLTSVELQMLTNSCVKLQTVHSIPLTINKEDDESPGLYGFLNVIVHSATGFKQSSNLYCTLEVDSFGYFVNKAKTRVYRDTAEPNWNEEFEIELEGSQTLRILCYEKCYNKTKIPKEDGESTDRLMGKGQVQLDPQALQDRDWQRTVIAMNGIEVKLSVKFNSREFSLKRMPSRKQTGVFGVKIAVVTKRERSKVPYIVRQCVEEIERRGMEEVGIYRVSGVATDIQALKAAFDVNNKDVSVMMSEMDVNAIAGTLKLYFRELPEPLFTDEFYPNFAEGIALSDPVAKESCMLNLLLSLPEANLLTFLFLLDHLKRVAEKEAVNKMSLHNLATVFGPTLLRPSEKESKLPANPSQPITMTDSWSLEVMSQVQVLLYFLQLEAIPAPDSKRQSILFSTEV

As for `C[C@]12O[C@H](C[C@]1(O)CO)n1c3ccccc3c3c4c(c5c6ccccc6n2c5c31)CNC4=O` [Lestaurtinib], the potency estimated from few doses at ULK1 was 549 nM.

A word on the EC50: it is the concentration needed to bring the measured effect to its halfway point. A lower EC50 goes with greater potency. Take `NCc1ccc(-c2nc(-c3ccncc3)c(-c3ccc(Cl)c(O)c3)[nH]2)cc1` [SB-476429-A]: the “Relative Intensity 0.3nM” value on MAPKAPK2 (0.3nM compound, DMSO = 1) came to 1.233; at RIPK2 (0.3nM compound, DMSO = 1), 0.9341. For the same molecule, the “Relative Intensity 1nM” value on MAPKAPK2 (1nM compound, DMSO = 1) was found to be 1.094; on RIPK2 (1nM compound, DMSO = 1) it was 0.8676. Besides, the “Relative Intensity 3nM” value was determined as 1.023 at MAPKAPK2 (3nM compound, DMSO = 1) and 0.8459 at RIPK2 (3nM compound, DMSO = 1). Besides, the “Relative Intensity 10nM” value stood at 1.156 at MAPKAPK2 (10nM compound, DMSO = 1) and 0.8036 on RIPK2 (10nM compound, DMSO = 1). Further, the “Relative Intensity 30nM” value at MAPKAPK2 (30nM compound, DMSO = 1) amounted to 0.8314; at RIPK2 (30nM compound, DMSO = 1), 0.6574. Besides, the “Relative Intensity 100nM” value on MAPKAPK2 (100nM compound, DMSO = 1) is 0.6869; on RIPK2 (100nM compound, DMSO = 1), 0.3411. Besides, the “Relative Intensity 300nM” value is reported as 0.5275 on MAPKAPK2 (300nM compound, DMSO = 1) and 0.1841 on RIPK2 (300nM compound, DMSO = 1). Moreover, the “Relative Intensity 1000nM” value at MAPKAPK2 (1000nM compound, DMSO = 1) worked out at 0; at RIPK2 (1000nM compound, DMSO = 1), 0.1065. The Kd was found to be 174 nM at MAPKAPK2 (setting [23]) and 28.8 nM on RIPK2 (setting [23]). The EC50 at MAPKAPK2 (setting [24]) amounted to 174 nM; on RIPK2 (setting [24]) it was 55.9 nM.

With `Cn1cc(-c2nc(N[C@@H]3CCCC[C@@H]3N)c(F)c3c2C(=O)NC3)cn1` [TAK659], the EC50 was found to be 1280 nM in assay [1]; 639 nM in assay [2]; 1020 nM in [3]; 725 nM in [4]; 1410 nM in assay [5]; 1020 nM in assay [6]. In addition, the half-maximal effective concentration (EC50) came out at 680 nM in assay [7]; 1730 nM in [8]; 595 nM in assay [9]; 628 nM in assay [10]; 742 nM in assay [11]; 325 nM in assay [12]. Moreover, the 50% effective concentration (EC50) in assay [13] amounted to 1150 nM; in assay [14], 997 nM; in assay [15], 566 nM; in [16], 837 nM; in [17], 161 nM; in assay [18], 1050 nM. Besides, the concentration for a half-maximal effect (EC50) in [19] is 1010 nM; in assay [20] it was 516 nM; in assay [21], 537 nM; in [22] it was 363 nM. In addition, the Kd in assay [1] (read-out: apparent Kd) amounted to 590 nM; in [2] (read-out: apparent Kd) it was 639 nM; in assay [3] (read-out: apparent Kd), 312 nM; in assay [4] (read-out: apparent Kd), 725 nM; in [5] (read-out: apparent Kd), 1180 nM; in [6] (read-out: apparent Kd) it was 528 nM. The Kd in assay [7] (read-out: apparent Kd) turned out to be 670 nM; in [8] (read-out: apparent Kd), 1580 nM; in assay [9] (read-out: apparent Kd), 459 nM; in assay [10] (read-out: apparent Kd), 567 nM; in [11] (read-out: apparent Kd), 683 nM; in assay [12] (read-out: apparent Kd) it was 257 nM. For the same molecule, the Kd in assay [13] (read-out: apparent Kd) was 1150 nM; in assay [14] (read-out: apparent Kd), 720 nM; in [15] (read-out: apparent Kd), 493 nM; in assay [16] (read-out: apparent Kd), 762 nM; in assay [17] (read-out: apparent Kd), 86.7 nM; in [18] (read-out: apparent Kd), 1050 nM. Moreover, the Kd in assay [19] (read-out: apparent Kd) is 895 nM; in assay [20] (read-out: apparent Kd), 516 nM; in assay [21] (read-out: apparent Kd), 456 nM; in assay [22] (read-out: apparent Kd), 275 nM.

(Values after article PMC11062922 (Nature Chemical Biology, 2023).)
